Test results: patent US20090035270A1, “COMBINATION THERAPY USING ANTI-ANGIOGENIC AGENTS AND TNF alpha” (priority 2001, published 2009)
Residues, ends and D or L forms follow the SMILES beside them. *: point of attachment. Cbz = O=C(OCc1ccccc1)*; CH2F = FC*

How the values were obtained:
Format in all cases: cell-based, human
HUVEC [1] = assay: HUVEC spheroid formation (aggregation) in BSA-coated wells; settings: mAbs 10 μg/ml, EDTA 5 mM, evaluated at 6 and 16 hours
Protocol: To test the effect of integrin ligation on TNF-induced apoptosis we identified conditions where endothelial cells could be cultured without integrin-dependent adhesion. Single cell suspensions of endothelial cells rapidly die by anoikis (Meredith et al., Mol. Biol. Cell 4, 953-961 (1993)) thus precluding further analysis. But by seeding human umbilical vein endothelial cells (HUVEC) at high density (1.0×10^6 cells/ml) in BSA-coated wells multicellular spheroids formed within 2-4 hours, and could be maintained for over 24 hours dependent on VE-cadherin and without any detectable contribution from integrins.
HUVEC were collected by trypsinization, resuspended in complete medium at 1.0×10^6 cells/ml and 1 ml/well were seeded into 12 wells non-tissue culture plates (Evergreen Scientific, Los Angeles, Calif., USA) previously coated with 1% BSA. For aggregation studies, 200 μl of the cell suspension were seeded into 1% BSA-coated microwells of ELISA plates (Maxisorp II, NUNC, Roskilde, Denmark) alone or in the presence of mAbs (10 μg/ml), EDTA (5 mM) or Ca^2+/EDTA (10/5 mM). Spheroid formation was evaluated at 6 hours and 16 hours. Micrographs were take with a Televal 31 microscope (Cart Zeiss AG, Zürich; Switzerland).

ICAM-1 expression = assay: Flow cytometry of ICAM-1 cell surface expression induced by TNF in HUVEC; settings: HUVEC treated with TNF
Protocol: Activation of the nuclear factor-κB (NF-κB) promotes survival of cells exposed to TNF (Beg & Baltimore, Science 274, 782-784; Van Antwerp et al., Science 274, 787-789 (1996)). Since cell adhesion via integrins activates NF-κB (Scatena et al., J. Cell Biol. 141, 1083-1093 (1998)), we investigated whether the sensitivity of spheroids to TNF-induced apoptosis was due to lack of NF-κB activation. NF-κB activation was assessed by measuring I-κB phosphorylation and degradation, NF-κB nuclear translocation and cell surface expression of ICAM-1, an NF-κB-induced gene (Collins et al., Faseb J. 9, 899-909. (1995)), in spheroid and fibronectin-adherent HUVEC cultures exposed to TNF±IFNγ.
Aktmp suppresses TNF-induced apoptosis of spheroids in the presence of active NF-κB. We also tested whether both NF-κB activation and active Akt signaling were required for the survival, or whether active Akt alone was sufficient. […]
Indirect immunostaining of HUVEC and EGFP expression were performed following standard protocol (Ruegg et al., I.c.). […] Ail samples were analyzed with a FACScan II® and Cell Quest® software (Becton Dickinson, Mountain View Calif., USA).

HUVEC [2] = assay: Detection of apoptotic HUVEC in culture (YoPro-1 staining); settings: spheroids; TNF±IFNγ
Protocol: To test whether integrins modulate TNF-induced apoptosis, we cultured HUVEC on fibronectin (integrin-dependent adhesion) or as spheroids (integrin-independent adhesion) in the absence or presence of TNF (200 ng/ml) and of IFNγ (330 ng/ml), an enhancer of TNF cytotoxicity (Dealtry et al., Eur. J. Immunol. 17, 689-693 (1987)). […] In contrast, spheroids treated with TNF±IFNγ increased uptake of YoPro-1 (an increase suppressed by caspase inhibitors BOC, Z-VAD, IETD and DVED), DNA fragmentation, caspase-3 activation and cleavage of PARP (FIG. 2a, 2b and data not shown). To examine the effect of TNF±IFNγ on cell survival we determined the viability of untreated and treated cultures. […] Treatment with IFNγ alone was not cytotoxic (data not shown). HUVEC adhere to immobilized fibronectin via αVβ3 and α5β1 integrins (Rüegg et al., Nature Med. 4, 408-414 (1998)). To test for the individual contribution of these integrins to cell survival on fibronectin, we cultured HUVEC on plastic-immobilized mAbs (imAbs) directed against αVβ3, α1, α5 and α4 integrins.
For morphological evaluation, spheroids were embedded in Epon (Fluka Chemie) and thick sections were stained with 1% Methylene/Azur blue. For immunostaining, frozen spheroid sections were fixed in 4% (Fluka Chemis, Buchs, Switzerland) formaldehyde. After blocking with 1% BSA, sections were sequentially incubated for 1 hour with primary mAb (20 μg/ml) and a Cyan3-labeled GaM antiserum (West Grove, Pa., USA). For the TUNEL reaction, frozen spheroids sections were fixed in 4% paraformaledhyde and processed as described (Ruegg et al., I.e.). Spherouids were countsrstained with propidium iodide for total DNA content. […] The apoptosis index was determined by calculating the ratio between the green (TUNEL staining of fragmented DNA) and red (propidium iodide staining by total DNA) pixels. Number of analyzed spheroids per condition were: C, 31; T, 21; TI, 12. […] Cultures were viewed by inverted fluorescence microscopy (Leica DM IRB, Heerbrugg, Switzerland). […]

HUVEC [3] = assay: Death ligand cytotoxicity on fibronectin-cultured HUVEC with EMD121974 (viability); settings: EMD121974 300 μM, ligand 200 ng/ml, overnight
Protocol: FIG. 8. Decreased integrin ligation enhances TNF-, TRAIL- and FasL-induced cytotoxicity in vitro. HUVEC were cultured overnight on fibronectin coated microtiter plates in the absence (control) or presence of EMD121974 (300 μM), TNF (200 ng/ml), FasL (200 ng/ml), TRAIL (200 ng/ml), LIGHT (200 ng/ml), and IFNγ (330 ng/ml) as indicated. Viability was determined by MST assays.

O=C(O)CN(CCN(CC(=O)O)CC(=O)O)CC(=O)O [EDTA]
HUVEC spheroid formation (HUVEC [1]): blocked spheroid formation

O=c1cc(N2CCOCC2)oc2c(-c3ccccc3)cccc12 [LY294002]
inhibition of ICAM-1 expression induced by TNF (ICAM-1 expression): did not inhibit

CC(NC(=O)C(NC(=O)OCc1ccccc1)C(C)C)C(=O)NC(CC(=O)O)C(=O)CF (stereo not drawn) [Z-VAD] (Cbz-Val-Ala-Asp-CH2F; configuration not given here)
effect of caspase inhibitor on increased YoPro-1 uptake of spheroids treated with TNF±IFNγ (HUVEC [2]): suppressed

COC[C@H]1OC(=O)c2coc3c2[C@@]1(C)C1=C(C3=O)[C@@H]2CCC(=O)[C@@]2(C)C[C@H]1OC(C)=O [wortmannin]
inhibition of ICAM-1 expression induced by TNF (ICAM-1 expression): did not inhibit

IETD
effect of caspase inhibitor on increased YoPro-1 uptake of spheroids treated with TNF±IFNγ (HUVEC [2]): suppressed

B1: TRAIL: death ligand of the TNF-ligand family (protein, UniProt P50591 1-281, looked up)
Tumor necrosis factor ligand …: MAMMEVQGGPSLGQTCVLIVIFTVLLQSLCVAVTYVYFTNELKQMQDKYSKSGIACFLKEDDSYWDPNDEESMNSPCWQVKWQLRQLVRKMILRTSEETISTVQEKQQNISPLVRERGPQRVAAHITGTRGRSNTLSSPNSKNEKALGRKINSWESSRSGHSFLSNLHLRNGELVIHEKGFYYIYSQTYFRFQEEIKENTKNDKQMVQYIYKYTSYPDPILLMKSARNSCWSKDAEYGLYSIYQGGIFELKENDRIFVSVTNEHLIDMDHEASFFGAFLVG
sensitivity to pro-apoptotic effects of death ligand in the presence of EMD121974 (synergism with αVβ3-blockage) (HUVEC [3]): Increased sensitivity

B2: FasL: death ligand of the TNF-ligand family (Fas ligand) (protein, UniProt P48023 130-281, looked up)
Tumor necrosis factor ligand …: QIGHPSPPPEKKELRKVAHLTGKSNSRSMPLEWEDTYGIVLLSGVKYKKGGLVINETGLYFVYSKVYFRGQSCNNLPLSHKVYMRNSKYPQDLVMMEGKMMSYCTTGQMWARSSYLGAVFNLTSADHLYVNVSELSLVNFEESQTFFGLYKL
sensitivity to pro-apoptotic effects of death ligand in the presence of EMD121974 (synergism with αVβ3-blockage) (HUVEC [3]): Increased sensitivity

B3: LIGHT: ligand binding to receptors lacking a death domain (protein, UniProt O43557 83-240, looked up)
Tumor necrosis factor ligand …: LIQERRSHEVNPAAHLTGANSSLTGSGGPLLWETQLGLAFLRGLSYHDGALVVTKAGYYYIYSKVQLGGVGCPLGLASTITHGLYKRTPRYPEELELLVSQQSPCGRATSSSRVWWDSSFLGGVVHLEAGEKVVVRVLDERLVRLRDGTRSYFGAFMV
sensitivity to pro-apoptotic effects of death ligand in the presence of EMD121974 (synergism with αVβ3-blockage) (HUVEC [3]): no synergism
